{"source": "patent US6835382B2", "about": "“Ii peptide therapeutics to enhance antigen presentation” (University of Massachusetts, priority 1996, dated 2004)", "note": "Positions of bridges follow the written chain, without caps; N, C: chain ends. Non-standard residues stand in square brackets, D forms with d. No end group written: not given here. hArg = N=C(N)NCCCC[C@H](N)C(=O)O; Cit = NC(=O)NCCC[C@H](N)C(=O)O"}
{"system": "murine E^k MHC class II allele", "assay": "simultaneous assay, E^k allele (CH27 APC, TPc9.1 T hybridoma, THMCC82-103 or PGCC81-104)", "assay_type": "cell-based", "details": "Table 15; AE peptide 16 μM; supernatant 1:4", "method_in_brief": "(§1)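 Antigenic peptide, mitomycin C-treated APC, effector compound and allele-restricted T hybridoma cultured together for 24 h. Supernatant then transferred to interleukin-dependent HT-2 cells. T cell activation quantified as [3H]TdR uptake by HT-2 cells.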"}
{"substance": "Ac-A[Cit]NKNPK-NH2 [AE351]", "Times Baseline Response, E^k": 1.6}
{"substance": "Ac-LR Orn K HArg PK-NH2 [AE340]", "Times Baseline Response, E^k": 39.5}
{"substance": "Ac-LRMKNPF-NH2 [AE350]", "Times Baseline Response, E^k": 24.2}
{"system": "murine E^k MHC class II allele", "assay": "simultaneous assay, E^k allele (CH27 APC, TPc9.1 T hybridoma, THMCC82-103 or PGCC81-104)", "assay_type": "cell-based", "details": "Table 16; AE peptide 4 μM; supernatant 1:8", "method_in_brief": "as §1"}
{"substance": "Ac-FK HArg MYP Cit-NH2 [AE371]", "Times Baseline Response, E^k": 1.5}
{"substance": "Ac-LKMKYPK-NH2 [AE362]", "Times Baseline Response, E^k": 1.3}
{"substance": "Ac-LRLKYPN-NH2 [AE368]", "Times Baseline Response, E^k": 11.2}
{"substance": "Ac-LK HArg KYPK-NH2 [AE363]", "Times Baseline Response, E^k": 1.7}
{"substance": "Ac-LRMMYP[Cit]-NH2 [AE367]", "Times Baseline Response, E^k": 6.6}
{"substance": "Ac-L[hArg]LKYPK-NH2 [AE361]", "Times Baseline Response, E^k": 4.6}
{"substance": "Ac-LR HArg MYPK-NH2 [AE365]", "Times Baseline Response, E^k": 20.1}
{"substance": "Ac-LRMKYPN-NH2 [AE370]", "Times Baseline Response, E^k": 7.5}
{"substance": "Ac-LR HArg KYP Cit-NH2 [AE366]", "Times Baseline Response, E^k": 49.4}
{"substance": "Ac-L[hArg]MKYPK-NH2 [AE360]", "Times Baseline Response, E^k": 2.5}
{"substance": "Ac-LRMKYP[Cit]-NH2 [AE364]", "Times Baseline Response, E^k": 16.6}
{"system": "murine E^k MHC class II allele", "assay": "simultaneous assay, E^k allele (CH27 APC, TPc9.1 T hybridoma, THMCC82-103 or PGCC81-104)", "assay_type": "cell-based", "details": "Table 18; AE peptide 64 μM; supernatant 1:4", "method_in_brief": "as §1"}
{"substance": "Ac-LRMKLPK (lactam 4-C) [AE382]", "Times Baseline Response, E^k": 18.1}
{"substance": "cyclic LRMKLPK (bridge (positions not given here); also: cyclic, ring type not given here) [AE381, “head-to-tail” cyclization from the amino-terminus to the carboxyl-terminus of AE114]", "Times Baseline Response, E^k": 0.56}
{"system": "murine E^k MHC class II allele", "assay": "simultaneous assay, E^k allele (CH27 APC, TPc9.1 T hybridoma, THMCC82-103 or PGCC81-104)", "assay_type": "cell-based", "details": "Tables 2 and 18", "method_in_brief": "as §1"}
{"substance": "Ac-LRMKLPK (lactam 4-C) [AE382]", "activity in simultaneous assay on E^k, in words": "moderately active"}
